From the kinase profiling compilation of Christmann-Franck et al. (2016)

Assays:
Experiment in all cases: KINOMEscan competition binding
Details in all cases: compound 10.0 µM
ANKK1 (human) = ANKK1 (human) (UniProt Q8NFD2)
AXL (human) = AXL (human) (UniProt P30530)
CAMK2B (human) = CAMK2B (human) (UniProt Q13554)
CAMK2D (human) = CAMK2D (human) (UniProt Q13557)
CDK13 (human) = CDK13 (human) (UniProt Q14004)
CDKL5 (human) = CDKL5 (human) (UniProt O76039)
CSNK1A1L (human) = CSNK1A1L (human) (UniProt Q8N752)
CaMK1 (human) = CaMK1 (human) (UniProt Q14012)
[1] = test system: EGFR (human), P00533 [A750P; 747-749 del]
EIF2AK2 (human) = EIF2AK2 (human) (UniProt P19525)
EPHB2 (human) = EPHB2 (human) (UniProt P29323)
ICK (human) = ICK (human) (UniProt Q9UPZ9)
INSRR (human) = INSRR (human) (UniProt P14616)
ITK (human) = ITK (human) (UniProt Q08881)
LCK (human) = LCK (human) (UniProt P06239)
MAP3K4 (human) = MAP3K4 (human) (UniProt Q9Y6R4)
MAP3K6 (human) = MAP3K6 (human) (UniProt O95382)
MAP4K1 (human) = MAP4K1 (human) (UniProt Q92918)
MAPKAPK2 (human) = MAPKAPK2 (human) (UniProt P49137)
MST1R (human) = MST1R (human) (UniProt Q04912)
[2] = test system: PIK3CA (human), P42336 [E545A]
PIK3CB (human) = PIK3CB (human) (UniProt P42338)
PIK3CD (human) = PIK3CD (human) (UniProt O00329)
PIM3 (human) = PIM3 (human) (UniProt Q86V86)
[3] = test system: RET (human), P07949 [M918T]
RIPK1 (human) = RIPK1 (human) (UniProt Q13546)
RIPK4 (human) = RIPK4 (human) (UniProt P57078)
RPS6KA3 KD1 (human) = RPS6KA3 KD1 (human) (UniProt P51812)
RPS6KA4 KD1 (human) = RPS6KA4 KD1 (human) (UniProt O75676)
SGK3 (human) = SGK3 (human) (UniProt Q96BR1)
SRPK2 (human) = SRPK2 (human) (UniProt P78362)
STK10 (human) = STK10 (human) (UniProt O94804)
STK16 (human) = STK16 (human) (UniProt O75716)
STK17A (human) = STK17A (human) (UniProt Q9UEE5)
STK17B (human) = STK17B (human) (UniProt O94768)
STK38 (human) = STK38 (human) (UniProt Q15208)
TIE1 (human) = TIE1 (human) (UniProt P35590)
TTK (human) = TTK (human) (UniProt P33981)
TXK (human) = TXK (human) (UniProt P42681)
ULK2 (human) = ULK2 (human) (UniProt Q8IYT8)
ULK3 (human) = ULK3 (human) (UniProt Q6PHR2)

Sequence of MAP3K6 (human) (O95382 whole entry, looked up): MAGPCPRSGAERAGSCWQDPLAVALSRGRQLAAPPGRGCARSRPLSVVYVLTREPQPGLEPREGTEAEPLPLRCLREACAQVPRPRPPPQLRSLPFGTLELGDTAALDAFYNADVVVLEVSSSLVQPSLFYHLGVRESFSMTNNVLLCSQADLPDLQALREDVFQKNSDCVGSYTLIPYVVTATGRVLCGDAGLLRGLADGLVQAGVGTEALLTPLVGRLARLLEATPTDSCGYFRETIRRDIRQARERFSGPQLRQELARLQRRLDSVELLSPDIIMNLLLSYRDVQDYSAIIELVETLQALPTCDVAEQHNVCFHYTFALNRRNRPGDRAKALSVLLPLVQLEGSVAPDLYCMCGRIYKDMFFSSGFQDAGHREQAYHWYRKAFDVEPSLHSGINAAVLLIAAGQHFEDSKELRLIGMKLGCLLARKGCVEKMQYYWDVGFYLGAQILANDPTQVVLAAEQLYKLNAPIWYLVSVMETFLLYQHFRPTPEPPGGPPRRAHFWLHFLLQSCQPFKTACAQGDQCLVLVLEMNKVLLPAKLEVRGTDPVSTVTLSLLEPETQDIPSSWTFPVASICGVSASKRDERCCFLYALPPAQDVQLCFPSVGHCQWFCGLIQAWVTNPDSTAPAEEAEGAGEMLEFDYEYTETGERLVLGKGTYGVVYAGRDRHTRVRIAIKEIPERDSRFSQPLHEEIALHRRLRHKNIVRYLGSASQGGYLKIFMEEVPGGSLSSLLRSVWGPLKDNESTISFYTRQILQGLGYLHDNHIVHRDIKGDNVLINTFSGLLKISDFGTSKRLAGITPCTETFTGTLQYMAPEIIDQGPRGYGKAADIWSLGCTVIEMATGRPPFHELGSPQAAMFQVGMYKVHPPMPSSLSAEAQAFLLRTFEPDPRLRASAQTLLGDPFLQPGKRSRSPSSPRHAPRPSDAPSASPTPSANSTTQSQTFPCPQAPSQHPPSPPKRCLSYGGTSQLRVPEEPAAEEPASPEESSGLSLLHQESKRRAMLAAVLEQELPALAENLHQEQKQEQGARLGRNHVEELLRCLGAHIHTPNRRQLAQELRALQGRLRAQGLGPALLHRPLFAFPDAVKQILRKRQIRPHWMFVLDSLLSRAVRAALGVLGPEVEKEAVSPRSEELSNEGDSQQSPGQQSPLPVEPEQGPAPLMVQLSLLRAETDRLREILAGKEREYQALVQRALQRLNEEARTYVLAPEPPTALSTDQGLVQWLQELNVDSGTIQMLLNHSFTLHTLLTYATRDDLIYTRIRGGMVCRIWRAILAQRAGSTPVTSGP
Sequence of CaMK1 (human) (Q14012 whole entry, looked up): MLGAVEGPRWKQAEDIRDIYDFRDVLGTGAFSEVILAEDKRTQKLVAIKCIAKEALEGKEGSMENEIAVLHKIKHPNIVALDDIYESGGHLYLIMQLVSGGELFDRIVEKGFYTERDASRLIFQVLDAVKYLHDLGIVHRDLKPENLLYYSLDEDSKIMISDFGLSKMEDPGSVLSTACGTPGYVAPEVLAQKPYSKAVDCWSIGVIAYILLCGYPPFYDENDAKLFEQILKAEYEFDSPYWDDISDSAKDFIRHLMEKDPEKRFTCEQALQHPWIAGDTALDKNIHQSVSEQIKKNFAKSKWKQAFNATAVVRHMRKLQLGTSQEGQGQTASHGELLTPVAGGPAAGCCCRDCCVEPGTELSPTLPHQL
Sequence of STK17B (human) (O94768 whole entry, looked up): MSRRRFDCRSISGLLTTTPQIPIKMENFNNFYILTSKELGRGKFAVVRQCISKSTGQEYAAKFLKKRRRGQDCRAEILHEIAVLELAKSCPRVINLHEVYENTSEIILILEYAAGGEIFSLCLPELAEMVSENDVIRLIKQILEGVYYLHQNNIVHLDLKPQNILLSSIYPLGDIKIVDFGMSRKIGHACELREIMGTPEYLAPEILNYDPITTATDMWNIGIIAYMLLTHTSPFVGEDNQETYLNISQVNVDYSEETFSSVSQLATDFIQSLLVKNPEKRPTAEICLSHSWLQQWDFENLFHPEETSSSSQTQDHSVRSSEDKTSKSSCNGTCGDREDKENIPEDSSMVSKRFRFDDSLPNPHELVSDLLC
Sequence of ICK (human) (Q9UPZ9 whole entry, looked up): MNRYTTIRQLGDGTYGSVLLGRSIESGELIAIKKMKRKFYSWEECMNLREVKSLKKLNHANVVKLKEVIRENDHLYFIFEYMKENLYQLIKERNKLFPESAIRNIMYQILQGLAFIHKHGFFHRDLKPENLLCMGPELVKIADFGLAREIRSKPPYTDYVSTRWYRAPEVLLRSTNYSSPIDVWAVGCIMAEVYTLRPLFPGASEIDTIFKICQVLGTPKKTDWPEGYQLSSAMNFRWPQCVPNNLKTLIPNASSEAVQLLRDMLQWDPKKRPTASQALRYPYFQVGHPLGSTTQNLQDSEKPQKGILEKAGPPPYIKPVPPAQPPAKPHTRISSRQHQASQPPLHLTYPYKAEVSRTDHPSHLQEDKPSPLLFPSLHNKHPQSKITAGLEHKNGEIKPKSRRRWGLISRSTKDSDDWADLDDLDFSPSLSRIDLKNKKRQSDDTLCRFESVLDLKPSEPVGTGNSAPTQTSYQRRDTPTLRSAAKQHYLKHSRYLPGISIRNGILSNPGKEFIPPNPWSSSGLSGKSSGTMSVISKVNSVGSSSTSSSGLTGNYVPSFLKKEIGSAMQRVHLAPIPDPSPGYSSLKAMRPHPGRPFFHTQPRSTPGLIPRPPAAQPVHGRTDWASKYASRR
Sequence of STK38 (human) (Q15208 whole entry, looked up): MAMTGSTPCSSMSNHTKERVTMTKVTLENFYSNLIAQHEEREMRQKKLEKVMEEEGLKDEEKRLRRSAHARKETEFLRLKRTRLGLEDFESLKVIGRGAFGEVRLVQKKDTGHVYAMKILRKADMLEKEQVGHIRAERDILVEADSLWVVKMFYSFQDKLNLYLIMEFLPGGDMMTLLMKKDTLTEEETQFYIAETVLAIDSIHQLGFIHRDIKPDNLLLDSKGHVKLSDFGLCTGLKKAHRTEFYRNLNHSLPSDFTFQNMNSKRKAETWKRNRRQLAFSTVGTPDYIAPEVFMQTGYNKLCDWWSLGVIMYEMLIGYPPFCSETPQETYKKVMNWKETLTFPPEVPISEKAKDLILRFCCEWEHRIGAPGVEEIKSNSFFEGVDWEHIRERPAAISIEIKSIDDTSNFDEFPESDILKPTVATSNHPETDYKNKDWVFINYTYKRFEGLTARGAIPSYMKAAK
Sequence of INSRR (human) (P14616 whole entry, looked up): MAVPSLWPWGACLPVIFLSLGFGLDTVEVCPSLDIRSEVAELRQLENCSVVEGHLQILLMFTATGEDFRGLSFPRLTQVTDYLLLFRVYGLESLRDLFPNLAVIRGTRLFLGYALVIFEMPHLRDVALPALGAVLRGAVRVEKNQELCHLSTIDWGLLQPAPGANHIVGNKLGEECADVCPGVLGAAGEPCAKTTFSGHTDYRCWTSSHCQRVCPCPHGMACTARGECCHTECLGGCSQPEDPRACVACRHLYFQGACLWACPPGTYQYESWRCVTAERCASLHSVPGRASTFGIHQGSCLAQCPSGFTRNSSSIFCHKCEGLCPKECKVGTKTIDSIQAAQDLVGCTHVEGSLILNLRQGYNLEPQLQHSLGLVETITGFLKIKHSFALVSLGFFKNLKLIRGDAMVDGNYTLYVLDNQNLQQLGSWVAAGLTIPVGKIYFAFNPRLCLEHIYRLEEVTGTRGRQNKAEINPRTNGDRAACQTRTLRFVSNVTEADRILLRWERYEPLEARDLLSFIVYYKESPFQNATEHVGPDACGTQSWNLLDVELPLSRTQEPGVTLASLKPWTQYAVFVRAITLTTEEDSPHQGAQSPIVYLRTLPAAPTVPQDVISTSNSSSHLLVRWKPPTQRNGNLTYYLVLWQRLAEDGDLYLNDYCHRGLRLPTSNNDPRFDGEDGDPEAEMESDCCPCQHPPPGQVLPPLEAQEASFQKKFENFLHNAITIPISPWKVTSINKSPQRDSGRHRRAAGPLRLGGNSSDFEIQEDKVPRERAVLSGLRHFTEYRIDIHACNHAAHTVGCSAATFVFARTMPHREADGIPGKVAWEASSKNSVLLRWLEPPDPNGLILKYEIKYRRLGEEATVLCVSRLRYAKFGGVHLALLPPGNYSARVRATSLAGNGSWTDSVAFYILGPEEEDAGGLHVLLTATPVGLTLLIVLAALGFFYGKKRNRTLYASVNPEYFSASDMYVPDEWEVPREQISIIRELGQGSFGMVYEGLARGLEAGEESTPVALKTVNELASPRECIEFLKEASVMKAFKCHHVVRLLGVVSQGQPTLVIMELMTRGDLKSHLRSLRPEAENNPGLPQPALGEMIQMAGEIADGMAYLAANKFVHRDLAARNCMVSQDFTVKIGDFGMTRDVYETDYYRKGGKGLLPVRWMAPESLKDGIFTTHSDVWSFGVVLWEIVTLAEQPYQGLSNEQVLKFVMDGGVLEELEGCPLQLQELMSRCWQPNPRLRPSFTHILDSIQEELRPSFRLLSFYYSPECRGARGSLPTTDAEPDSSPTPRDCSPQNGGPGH

Question: How did the kinase still bound, per cent of control (ANKK1 (human)) turn out when `COc1ccc(-c2ccc3c(N4CCOCC4)nc(N4C[C@@H](C)O[C@@H](C)C4)nc3n2)cc1CO` was run?
Answer: 98%

Question: And the kinase still bound, per cent of control (AXL (human))?
Answer: 100%

Question: And the kinase still bound, per cent of control (CAMK2B (human))?
Answer: 96%

Question: And the kinase still bound, per cent of control (CAMK2D (human))?
Answer: 100%

Question: What about the per cent of control (CDK13 (human)) of the same compound?
Answer: 100%

Question: And the per cent of control (CDKL5 (human))?
Answer: 77%

Question: What about the kinase still bound, per cent of control (CSNK1A1L (human)) of the same compound?
Answer: 97%

Question: And the kinase still bound, per cent of control (CaMK1 (human))?
Answer: 90%

Question: What about the kinase still bound, per cent of control [1] of the same compound?
Answer: 100%

Question: What about the kinase still bound, per cent of control (EIF2AK2 (human)) of the same compound?
Answer: 100%

Question: What about the kinase still bound, per cent of control (EPHB2 (human)) of the same compound?
Answer: 100%

Question: What about the kinase still bound, per cent of control (ICK (human)) of the same compound?
Answer: 100%

Question: What about the kinase still bound, per cent of control (INSRR (human)) of the same compound?
Answer: 100%

Question: What about the kinase still bound, per cent of control (ITK (human)) of the same compound?
Answer: 88%

Question: And the kinase still bound, per cent of control (LCK (human))?
Answer: 98%

Question: And the kinase still bound, per cent of control (MAP3K4 (human))?
Answer: 100%

Question: And the kinase still bound, per cent of control (MAP3K6 (human))?
Answer: 91%

Question: And the kinase still bound, per cent of control (MAP4K1 (human))?
Answer: 88%

Question: And the kinase still bound, per cent of control (MAPKAPK2 (human))?
Answer: 92%

Question: And the kinase still bound, per cent of control (MST1R (human))?
Answer: 99%

Question: And the kinase still bound, per cent of control [2]?
Answer: 2.4%

Question: And the kinase still bound, per cent of control (PIK3CB (human))?
Answer: 30%

Question: And the kinase still bound, per cent of control (PIK3CD (human))?
Answer: 0.95%

Question: And the kinase still bound, per cent of control (PIM3 (human))?
Answer: 100%

Question: What about the kinase still bound, per cent of control [3] of the same compound?
Answer: 100%

Question: What about the kinase still bound, per cent of control (RIPK1 (human)) of the same compound?
Answer: 100%

Question: What about the kinase still bound, per cent of control (RIPK4 (human)) of the same compound?
Answer: 71%

Question: And the kinase still bound, per cent of control (RPS6KA3 KD1 (human))?
Answer: 99%

Question: And the kinase still bound, per cent of control (RPS6KA4 KD1 (human))?
Answer: 96%

Question: What about the kinase still bound, per cent of control (SGK3 (human)) of the same compound?
Answer: 100%

Question: What about the kinase still bound, per cent of control (SRPK2 (human)) of the same compound?
Answer: 100%

Question: And the kinase still bound, per cent of control (STK10 (human))?
Answer: 92%

Question: And the kinase still bound, per cent of control (STK16 (human))?
Answer: 93%

Question: And the kinase still bound, per cent of control (STK17A (human))?
Answer: 96%

Question: And the kinase still bound, per cent of control (STK17B (human))?
Answer: 100%

Question: And the kinase still bound, per cent of control (STK38 (human))?
Answer: 55%

Question: What about the kinase still bound, per cent of control (TIE1 (human)) of the same compound?
Answer: 100%

Question: And the kinase still bound, per cent of control (TTK (human))?
Answer: 95%

Question: And the kinase still bound, per cent of control (TXK (human))?
Answer: 100%

Question: And the kinase still bound, per cent of control (ULK2 (human))?
Answer: 100%

Question: And the kinase still bound, per cent of control (ULK3 (human))?
Answer: 100%
